Test results reported in PubChem BioAssay (NCI).
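Step 1: Grow cells in 96-well plates. Step 2: Expose to compound for 48 hours at 5 concentrations. Step 3: Interpolate endpoints linearly; if unreached, use highest concentration. TGI: total growth inhibition.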

What was measured:
Test in all cases: DTP human tumour cell line panel, 48 h
HCT-15 colon = test system: HCT-15 colon
U251 CNS = test system: U251 CNS
OVCAR-4 ovarian = test system: OVCAR-4 ovarian
NCI-H460 lung = test system: NCI-H460 lung
PC-3 prostate = test system: PC-3 prostate
SF-295 CNS = test system: SF-295 CNS
NCI-H23 lung = test system: NCI-H23 lung
KM12 colon = test system: KM12 colon
IGROV1 ovarian = test system: IGROV1 ovarian
DU-145 prostate = test system: DU-145 prostate
K-562 leukemia = test system: K-562 leukemia
OVCAR-3 ovarian = test system: OVCAR-3 ovarian
A549 NSCLC = test system: A549 NSCLC
RPMI-8226 leukemia = test system: RPMI-8226 leukemia
HT29 colon = test system: HT29 colon

Row | Structure (SMILES) | TGI (HCT-15 colon) [µM] | TGI (U251 CNS) [µM] | TGI (OVCAR-4 ovarian) [µM] | TGI (NCI-H460 lung) [µM] | TGI (PC-3 prostate) [µM] | TGI (SF-295 CNS) [µM] | TGI (NCI-H23 lung) [µM] | TGI (KM12 colon) [µM] | TGI (IGROV1 ovarian) [µM] | TGI (DU-145 prostate) [µM] | TGI (K-562 leukemia) [µM] | TGI (OVCAR-3 ovarian) [µM] | TGI (A549 NSCLC) [µM] | TGI (RPMI-8226 leukemia) [µM] | TGI (HT29 colon) [µM]
1 | CCN1C(c2ccccc2)=CC(c2ccccc2)(C(Cl)(Cl)Cl)C=C1c1ccccc1 | > 100 | > 100 | > 100 | 23.3 | > 100 | > 100 | 93.4 | 16.2 | 27.9 | > 100 | > 100 | > 100 | > 100 | > 100 | 21.8
2 | COc1ccc(-c2c(C#N)c(N)nc(Sc3ccccc3N)c2C#N)cc1 | > 100 | 61 | > 100 | > 100 | > 55.6 | 56.6 | > 100 | > 100 | > 56.8 | > 100 | > 100 | > 100 | > 100 | > 100 | > 100
3 | c1ccc([P+](Cc2ccc(C[P+](c3ccccc3)(c3ccccc3)c3ccccc3)s2)(c2ccccc2)c2ccccc2)cc1 | > 100 | > 100 | > 100 | > 100 | > 100 | > 100 | > 100 | > 100 | > 100 | > 100 | > 100 | > 100 | > 100 | > 100 | > 100
4 | O=C(N/N=C\c1ccc([N+](=O)[O-])cc1)Nc1ccc2ccccc2c1 | > 100 | 45.8 | 46.2 | 36.2 | > 100 | > 100 | > 100 | 67.3 | > 100 | > 100 | > 100 | > 100 | > 100 | > 100 | 72.2
5 | C[C@]12CC/C(=N\OCCN3CCCC3)C=C1CCC1C2CC[C@@]2(C)C1CC[C@]2(C)O (stereo not given in full) | 15 | 20.2 | 82.4 | 16.3 | 71.7 | 12.3 | 35.8 | 19.1 | 35.9 | 39.5 | 14.2 | 24.1 | 42.5 | 14 | 5.69
6 | CC1CCC2C(C(=O)O[C@H]3C4C=CO[C@@H](OC5OC(CO)C(O)C(O)C5O)C4[C@@]4(CO)O[C@@H]34)=CO[C@@H](OC3OC(CO)C(O)C(O)C3O)C12 (stereo not given in full) | > 10 | > 10 | > 10 | > 10 | > 10 | > 10 | > 10 | > 10 | > 10 | > 10 | > 10 | > 10 | > 10 | > 10 | > 10
7 | C=CCNC(=S)NC=C(C(N)=O)C(N)=O | > 100 | > 100 | > 100 | > 100 | > 100 | > 100 | > 100 | > 100 | > 100 | > 100 | > 100 | > 100 | > 100 | > 100 | > 100
8 | Clc1nc(NC23CC4CC(CC(C4)C2)C3)nc(NC23CC4CC(CC(C4)C2)C3)n1 | > 100 | > 69 | > 100 | > 100 | > 40.6 | > 100 | > 100 | > 100 | > 100 | > 100 | 47 | > 100 | > 100 | > 100 | > 100
9 | COc1ccc2c(c1)C1Oc3ccccc3CC1CO2 (stereo not given) | > 100 | > 100 | > 100 | > 100 | > 100 | > 100 | > 100 | > 100 | > 100 | > 100 | > 100 | > 100 | > 100 | 65.4 | > 100
10 | O=C(O)CNc1ncc2c(n1)-c1ccccc1OC2 | > 100 | > 100 | > 100 | > 100 | > 100 | > 100 | > 100 | > 100 | > 100 | > 100 | > 100 | > 100 | > 100 | > 100 | > 100
11 | ON[C@@H]1C=C[C@H](n2cnc3c(NC4CC4)ncnc32)C1 | > 100 | > 100 | > 100 | > 100 | > 100 | > 100 | > 100 | > 100 | > 100 | > 100 | > 100 | > 100 | > 100 | > 100 | > 100
12 | NC(N)=NS(=O)(=O)c1ccc(NCc2cccc3c(=O)c4ccc(Cl)cc4oc23)cc1 | > 20 | > 14.6 | > 18 | 7.3 | > 14 | > 14.9 | > 21.8 | > 25 | > 11 | 17.3 | > 25 | > 18.3 | > 25 | > 25 | > 14.6
13 | COc1ccccc1OC/C(N=Cc1cccnc1)=N/NC(=O)c1ccncc1 | > 100 | > 100 | > 100 | > 100 | > 100 | > 100 | > 100 | > 100 | > 100 | > 100 | > 100 | > 100 | > 100 | > 100 | > 100
14 | COC(=O)c1c(C)c2c(c(C)c1O)OC(=O)c1c(C)cc(O)c(C=O)c1O2 | > 100 | > 100 | > 100 | > 100 | > 100 | > 100 | > 100 | > 100 | > 100 | > 100 | > 100 | > 100 | > 100 | > 100 | > 100
15 | NC(=S)N/N=C1\CCc2ccccc2C1 | > 100 | > 100 | > 100 | > 100 | > 100 | > 100 | > 100 | > 100 | > 100 | > 100 | > 100 | > 100 | > 100 | > 100 | > 100
16 | CC(C)(C)C1CC[C@H](O)[C@H]([C@@H](O)CC2CC(=O)N(c3ccccc3)C(=O)C2)C1 (stereo not given in full) | > 100 | > 100 | > 100 | > 100 | > 100 | > 100 | > 100 | > 100 | > 100 | > 100 | > 100 | > 100 | > 100 | > 100 | > 100
17 | COc1cc(C)cc2c1C(=O)C(NC(C)=O)=CC2=O | > 100 | > 100 | 74.5 | > 100 | > 100 | > 100 | > 100 | > 100 | > 100 | > 100 | > 100 | > 100 | > 100 | > 100 | > 100
18 | CCOC(=O)c1sc2c(c1OC(=O)c1ccco1)c(=O)n(-c1ccccc1)c(=S)n2-c1ccccc1 | > 100 | > 100 | > 100 | 45.5 | 50 | > 100 | > 100 | > 100 | 36.3 | > 100 | > 100 | 76.9 | > 100 | 78.5 | > 100
19 | O=C(NC1C(=O)NC(CCc2ccccc2)NC1=O)OCc1ccccc1 (stereo not given) | > 100 | > 100 | > 100 | > 100 | > 100 | > 100 | > 100 | > 100 | > 100 | > 100 | > 100 | > 100 | > 100 | > 100 | > 100
20 | C#CCNC(CCCN=C(N)N)C(=O)O (stereo not given) | > 100 | > 100 | > 100 | > 100 | > 100 | > 100 | > 100 | > 100 | > 100 | > 100 | > 100 | > 100 | > 100 | > 100 | > 100
21 | CCCCCCCCCCCCCCCCNc1nc(=O)n(C2CC(O)C(COP(=O)(O)OC3CC(n4cc(F)c(=O)[nH]c4=O)OC3CO)O2)cc1F (stereo not given) | 50.9 | 32 | > 100 | 22.6 | > 78.6 | 18.9 | 19.4 | > 81.4 | > 59.9 | > 70.6 | 24.1 | > 100 | 26.4 | 25.5 | 26.5
22 | Cc1cc(NS(=O)(=O)c2ccc(NC(=O)c3ccc4nc5ccccc5c(Nc5ccc(S(N)(=O)=O)cc5)c4c3)cc2)no1 | 41.3 | 64.7 | 89.9 | 53.1 | > 100 | > 100 | 95.2 | 59.1 | > 100 | > 100 | 44.6 | 74.4 | 66.3 | 68 | 72.2
23 | CCOC1OC(CO[Si](C)(C)C(C)(C)C)C(O)CC1n1ccc(=O)[nH]c1=O (stereo not given) | > 100 | > 100 | > 100 | > 100 | > 100 | > 100 | > 100 | > 100 | 48.6 | > 100 | 73.1 | > 100 | > 100 | > 100 | > 100
24 | CC(C)CC1C(=O)OC(C)(C)OC1=O | > 100 | > 100 | > 100 | > 100 | > 100 | > 100 | > 100 | > 100 | > 100 | > 100 | > 100 | > 100 | > 100 | > 100 | > 100
25 | CCCCCCCCC#CCCCCCCC(F)C(=O)O (stereo not given) | > 100 | > 100 | > 100 | > 100 | > 100 | > 100 | > 100 | > 100 | > 100 | > 100 | > 100 | > 100 | > 100 | > 100 | > 100
26 | O=C1NCC2(CCN(CC3COc4ccccc4O3)CC2)N1c1ccccc1 (stereo not given) | > 100 | > 100 | > 100 | > 100 | > 100 | > 100 | > 100 | > 100 | > 100 | > 100 | > 100 | > 100 | > 100 | > 100 | > 100
27 | CCOC(=O)C1Cc2ccc(C)cc2C1=O (stereo not given) | > 100 | > 100 | > 100 | > 100 | > 100 | > 100 | > 100 | > 100 | > 100 | > 100 | > 100 | > 100 | > 100 | > 100 | > 100
28 | CCc1n[nH]c(=O)n1N | > 100 | > 100 | > 100 | > 100 | > 100 | > 100 | > 100 | > 100 | > 100 | > 100 | > 100 | > 100 | > 100 | > 100 | > 100
29 | COc1ccc(/C=N/n2c(Cc3ccccc3)n[nH]c2=O)c(OC)c1 | > 100 | > 65.1 | > 100 | > 92.5 | > 100 | > 61.4 | > 65.4 | > 100 | > 100 | > 100 | > 100 | > 100 | > 58.4 | > 100 | > 64.5
30 | C=C(Cl)C(Cl)(CBr)CCCC(C)C (stereo not given) | > 85.4 | 21.9 | > 100 | 30.2 | 27.5 | 30 | > 100 | 24.2 | > 100 | 23.7 | > 100 | 12.4 | 54.8 | > 27.3 | 15.7
